Assay results published in patent publication US9593149B2, “Amylin and calcitonin receptor agonist” (Novo Nordisk A/S, priority 2014, dated 2017).
Converted amounts (≈) assume the structure as drawn. Numbered stars: 1 amine (or outer) side, 2 acyl side, 3 side chain; on linkers, the order of the positions; unused ones are H or OH. Peptide text beside a SMILES is read from it. * marks the point of attachment. C20 diacid = O=C(O)CCCCCCCCCCCCCCCCCCC(=O)*; C18 diacid = O=C(O)CCCCCCCCCCCCCCCCC(=O)*; γGlu = O=C(O)[C@H](CCC(=O)[*:2])N[*:1]; C12 diacid = O=C(O)CCCCCCCCCCC(=O)*

How the values were obtained:
[1] = Assay (IV) determination of solubility; assay type: physicochemical
Procedure: Assay (IV)—Determination of Solubility
The mimylin peptide was dissolved in water at ˜500 nmol/ml and mixed 1:1 with a series of buffers (100 mM glycylglycine pH 3.0, 100 mM glycylglycine pH 4.0, 100 mM glycylglycine pH 5.0, 100 mM bistrispropane pH 6.0, 100 mM bistrispropane pH 6.5, 100 mM bistrispropane pH 7.0, 100 mM bistrispropane pH 7.5, 100 mM bistrispropane pH 8.0).

[2] = Assay (IX) pK, T½ in mini-pig; assay type: in vivo, Göttingen mini-pigs; settings: i.v.
Procedure: Assay (IX)—pK—Determination of T½ in Mini-Pig
Pharmacokinetic (PK) studies in Göttingen mini-pigs were conducted in order to determine the T½ of the mimylin compound according to the Examples as indicated after i.v. administration.
T½ values of the amylin analogues of the invention is determined by pharmacokinetic studies in female Göttingen mini-pigs from Ellegaard Göttingen Minipigs ApS and the principles of laboratory animal care are followed.
An acclimatisation period of approximately 6-10 days was allowed before the animals entered the study. At start of the acclimatisation period the mini-pigs were about 5 to 12 months old and in the weight range of 15-35 kg. The mini-pigs had two central venous catheters inserted which were used for blood sampling.
The studies were conducted in an animal room which was illuminated to give a cycle of approximately 12 hours light and 12 hours darkness. The animals were housed individually. The animals had free access to domestic quality drinking water during the study, and no food restrictions applied for PK studies. The animals were weighed on arrival and on the days of dosing.
In the present studies the test substances were administered intravenously in approximately 5 nmol/kg dose. The animals received a single intravenous injection in one central venous catheter and blood sampling was performed from the other catheter, where possible. Each test substance was given to typically three but in some cases two or four animals.
A full plasma concentration-time profile, employing 12-16 sampling points, was obtained from each animal. In example blood samples were collected according to the following schedule:
After Intravenous Administration:
Pre-dose (0), 0.5, 1, 2, 4, 6, 8, 12, 24, 48, 72, 96, 120, 168 and 240 hours after injection. In some cases also additional blood samples up to 288 hours post injection were taken.
At each sampling time, 0.5 to 2 ml of blood was drawn from each animal. The blood samples were taken via the central venous catheter.
The 0.8 mL blood samples were collected into EDTA test tubes (8 mM EDTA). Blood samples were kept on ice for max 20 min. before centrifugation. Plasma was separated using centrifugation (i.e. at 4° C., 10 min., 2000G) and was immediately transferred to Micronic tubes on dry ice. Approximately 200 μl plasma was transferred to each Micronic tube. The plasma was stored at −20° C. until assayed. The plasma samples were assayed for the content of compound using LCMS.
The plasma concentration-time profiles were analysed by a non-compartmental pharmacokinetic analysis (NCA) using Phoenix WinNonlin 6.3 (Pharsight Inc., Mountain View, Calif., USA). NCA was performed using the individual plasma concentration-time profiles from each animal. T½ is the terminal half-life=In2/λz and was determined from λz, the first order rate constant associated with the terminal (log-linear) portion of the curve, estimated by linear regression of time vs. log concentration.
MS-Method for Amylin and Mimylin Quantification
40 μl plasma is diluted with 120 μl 66.67% EtOH+1% HCOOH and mixed. Centrifuged for 20 min. at 13000 rpm, 4° C. The supernatant is analyzed by an LC-MS method on a Sciex API 3000 and quantitated with a standard made up in plasma

Row | Structure (SMILES) | Solubility ([1]; pH 3.0) | Solubility ([1]; pH 4.0) | Solubility ([1]; pH 5.0) | Solubility ([1]; pH 6.0) | Solubility ([1]; pH 6.5) | Solubility ([1]; pH 7.0) | Solubility ([1]; pH 7.5) | Solubility ([1]; pH 8.0) | PK mini pig iv T½ [2] | solubility at 18 h ([1]; pH 5.0) | solubility at 18 h ([1]; bistrispropane buffer, pH 6.5)
1 | CC(C)C[C@H](NC(=O)[C@H](C)NC(=O)[C@H](C)NC(=O)[C@@H](NC(=O)[C@H](CO)NC(=O)[C@H](CC(C)C)NC(=O)[C@H](CCC(=O)O)NC(=O)[C@H](CO)NC(=O)[C@H](C)NC(=O)[C@H](CCC(=O)O)NC(=O)CCCCCCCCCCCCCCCCC(=O)O)[C@@H](C)O)C(=O)NCC(=O)N[C@@H](CCCNC(=N)N)C(=O)N[C@@H](CC(C)C)C(=O)N[C@@H](CO)C(=O)N[C@@H](C)C(=O)N[C@@H](CCC(=O)O)C(=O)N[C@@H](CC(C)C)C(=O)N[C@@H](Cc1cnc[nH]1)C(=O)N[C@@H](CCC(=O)O)C(=O)N[C@@H](CC(C)C)C(=O)N[C@@H](C)C(=O)N[C@H](C(=O)N[C@@H](CC(C)C)C(=O)N1CCC[C@H]1C(=O)N[C@@H](CCCNC(=N)N)C(=O)N[C@H](C(=O)N[C@@H](CCC(=O)O)C(=O)N[C@H](C(=O)NCC(=O)N[C@@H](CO)C(=O)NCC(=O)N[C@@H](CO)C(=O)N1CCC[C@H]1C(N)=O)[C@@H](C)O)[C@@H](C)O)[C@@H](C)O [compound 21, [N-terminal(C18 diacid), 30S, 31G]mimylin] ({C18 diacid}-EASELSTAALGRLSAELHELATLPRTETGSGSP-NH2) | ≧200 μM | ≧200 μM | ≧200 μM | ≧200 μM | ≧200 μM | ≧200 μM | ≧200 μM | ≧200 μM | 118 h |  | 
2 | CC(C)C[C@H](NC(=O)[C@H](CCCNC(=N)N)NC(=O)CNC(=O)[C@H](CC(C)C)NC(=O)[C@@H](NC(=O)[C@H](C)NC(=O)[C@@H](NC(=O)[C@H](CO)NC(=O)[C@H](CC(C)C)NC(=O)[C@H](CCC(N)=O)NC(=O)[C@H](CO)NC(=O)[C@H](C)NC(=O)CC[C@H](NC(=O)CCCCCCCCCCCCCCCCCCC(=O)O)C(=O)O)[C@@H](C)O)C(C)C)C(=O)N[C@@H](CO)C(=O)N[C@@H](CCC(N)=O)C(=O)N[C@@H](CCC(=O)O)C(=O)N[C@@H](CC(C)C)C(=O)N[C@@H](Cc1cnc[nH]1)C(=O)N[C@@H](CCC(=O)O)C(=O)N[C@@H](CC(C)C)C(=O)N[C@@H](CCC(N)=O)C(=O)N[C@H](C(=O)N[C@@H](Cc1ccc(O)cc1)C(=O)N1CCC[C@H]1C(=O)N[C@@H](CCCNC(=N)N)C(=O)N[C@H](C(=O)N[C@@H](CCC(=O)O)C(=O)N[C@H](C(=O)NCC(=O)N[C@@H](CO)C(=O)N[C@@H](CCC(N)=O)C(=O)N[C@H](C(=O)N[C@@H](Cc1ccc(O)cc1)C(N)=O)[C@@H](C)O)[C@@H](C)O)[C@@H](C)O)[C@@H](C)O [compound 116, [N-terminal(C20 diacid-gGlu), des1, 4Q, 9V, 15Q, 21Q, 23Y, 30S, 31Q, 32T, 33Y]mimylin] ({C20 diacid-γGlu}-ASQLSTAVLGRLSQELHELQTYPRTETGSQTY-NH2) | ≧200 μM | ≧200 μM |  | ≧200 μM | ≧200 μM | ≧200 μM | ≧200 μM | ≧200 μM | 87 h | 32 µM (≈ 129 µg/mL) | 
3 | CC(C)C[C@H](NC(=O)[C@H](C)NC(=O)[C@H](C)NC(=O)[C@@H](NC(=O)[C@H](CO)NC(=O)[C@H](CC(C)C)NC(=O)[C@H](CCC(=O)O)NC(=O)[C@H](CO)NC(=O)[C@H](C)NC(=O)[C@H](CCC(=O)O)NC(=O)CCCCCCCCCCCCCCCCC(=O)O)[C@@H](C)O)C(=O)NCC(=O)N[C@@H](CCCNC(=N)N)C(=O)N[C@@H](CC(C)C)C(=O)N[C@@H](CO)C(=O)N[C@@H](C)C(=O)N[C@@H](CCC(=O)O)C(=O)N[C@@H](CC(C)C)C(=O)N[C@@H](C)C(=O)N[C@@H](CCC(=O)O)C(=O)N[C@@H](CC(C)C)C(=O)N[C@@H](C)C(=O)N[C@H](C(=O)N[C@@H](CC(C)C)C(=O)N1CCC[C@H]1C(=O)N[C@@H](CCCNC(=N)N)C(=O)N[C@H](C(=O)N[C@@H](CCC(=O)O)C(=O)N[C@H](C(=O)NCC(=O)N1CCC[C@H]1C(=O)N[C@@H](CCC(=O)O)C(=O)N[C@@H](CO)C(=O)N1CCC[C@H]1C(N)=O)[C@@H](C)O)[C@@H](C)O)[C@@H](C)O [compound 13, [N-terminal(C18 diacid), 18A]mimylin] ({C18 diacid}-EASELSTAALGRLSAELAELATLPRTETGPESP-NH2) | ≧200 μM | ≧200 μM | ≧200 μM | ≧200 μM | ≧200 μM | ≧200 μM | ≧200 μM | ≧200 μM | 86 h |  | 
4 | CC(C)C[C@H](NC(=O)[C@H](CCC(=O)O)NC(=O)[C@H](Cc1cnc[nH]1)NC(=O)[C@H](CC(C)C)NC(=O)[C@H](CCC(=O)O)NC(=O)[C@H](C)NC(=O)[C@H](CO)NC(=O)[C@H](CC(C)C)NC(=O)[C@H](CCCNC(=N)N)NC(=O)CNC(=O)[C@H](CC(C)C)NC(=O)[C@@H](NC(=O)[C@H](C)NC(=O)[C@@H](NC(=O)[C@H](CO)NC(=O)[C@H](CC(C)C)NC(=O)[C@H](CCC(=O)O)NC(=O)[C@H](CO)NC(=O)[C@H](C)NC(=O)[C@H](CCC(=O)O)NC(=O)CCCCCCCCCCCCCCCCC(=O)O)[C@@H](C)O)C(C)C)C(=O)N[C@@H](C)C(=O)N[C@H](C(=O)N[C@@H](CC(C)C)C(=O)N1CCC[C@H]1C(=O)N[C@@H](CCCNC(=N)N)C(=O)N[C@H](C(=O)N[C@@H](CCC(=O)O)C(=O)N[C@H](C(=O)NCC(=O)N1CCC[C@H]1C(=O)N[C@@H](CCC(=O)O)C(=O)N[C@@H](CO)C(=O)N1CCC[C@H]1C(N)=O)[C@@H](C)O)[C@@H](C)O)[C@@H](C)O [compound 9, [N-terminal(C18 diacid), 9V]mimylin] ({C18 diacid}-EASELSTAVLGRLSAELHELATLPRTETGPESP-NH2) | ≧200 μM | ≧200 μM | ≧200 μM | ≧200 μM | ≧200 μM | ≧200 μM | ≧200 μM | ≧200 μM | 90 h |  | 
5 | CC(C)C[C@H](NC(=O)[C@H](C)NC(=O)[C@H](C)NC(=O)[C@@H](NC(=O)[C@H](CO)NC(=O)[C@H](CC(C)C)NC(=O)[C@H](CCC(=O)O)NC(=O)[C@H](CO)NC(=O)[C@H](C)NC(=O)[C@H](CCC(=O)O)NC(=O)CCCCCCCCCCC(=O)O)[C@@H](C)O)C(=O)NCC(=O)N[C@@H](CCCNC(=N)N)C(=O)N[C@@H](CC(C)C)C(=O)N[C@@H](CO)C(=O)N[C@@H](C)C(=O)N[C@@H](CCC(=O)O)C(=O)N[C@@H](CC(C)C)C(=O)N[C@@H](Cc1cnc[nH]1)C(=O)N[C@@H](CCC(=O)O)C(=O)N[C@@H](CC(C)C)C(=O)N[C@@H](C)C(=O)N[C@H](C(=O)N[C@@H](CC(C)C)C(=O)N1CCC[C@H]1C(=O)N[C@@H](CCCNC(=N)N)C(=O)N[C@H](C(=O)N[C@@H](CCC(=O)O)C(=O)N[C@H](C(=O)NCC(=O)N1CCC[C@H]1C(=O)N[C@@H](CCC(=O)O)C(=O)N[C@@H](CO)C(=O)N1CCC[C@H]1C(N)=O)[C@@H](C)O)[C@@H](C)O)[C@@H](C)O [compound 6, [N-terminal(C12 diacid)]mimylin] ({C12 diacid}-EASELSTAALGRLSAELHELATLPRTETGPESP-NH2) | ≧200 μM | ≧200 μM | ≧200 μM | ≧200 μM |  | ≧200 μM | ≧200 μM | ≧200 μM | 1 h |  | ≥ 200 µM
